In ChEMBL document CHEMBL4308859, “Discovery of Novel Central Nervous System Penetrant Metabotropic Glutamate Receptor Subtype 2 (mGlu2) Negative Allosteric Modulators (NAMs) Based on Functionalized Pyrazolo[1,5- a]pyrimidine-5-carboxamide and Thieno[3,2- b]pyridine-5-carboxamide Cores” (J Med Chem, 2018):

Key:
[1] = target: Metabotropic glutamate receptor 2 (Rattus norvegicus) (UniProt P31421); assay: Negative allosteric modulation of rat mGlu2R expressed in HEK293 cells co-expressing Galpha15 assessed as decrease in glutamate-induced calcium mobilization at 30 uM preincubated for 2.3 mins followed by glutamate addition and measured after 1.7 mins by Fluo-4-AM dye based fluorescence assay relative to control; type: functional, cell-based
[2] = target: Metabotropic glutamate receptor 2 (Rattus norvegicus, UniProt P31421); assay: Negative allosteric modulation of rat mGlu2R expressed in HEK293 cells co-expressing Galpha15 assessed as decrease in glutamate-induced calcium mobilization preincubated for 2.3 mins followed by glutamate addition and measured after 1.7 mins by Fluo-4-AM dye based fluorescence assay; type: functional, cell-based
[3] = Fraction unbound in rat plasma after 4 hrs by equilibrium dialysis method; type: ADME, cell-free
[4] = Fraction unbound in rat brain; type: ADME, tissue-based
[5] = Brain to plasma partition coefficient, Kp of the compound in Sprague-Dawley rat at 0.2 mg/kg, iv administered as cassette dose by LC-MS/MS analysis; type: ADME, organism-based; conditions: brain and plasma
[6] = Fraction unbound in human plasma after 4 hrs by equilibrium dialysis method; type: ADME, cell-free
[7] = Unbound brain to plasma ratio in Sprague-Dawley rat at 0.2 mg/kg, iv administered as cassette dose by LC-MS/MS analysis; type: ADME, organism-based; conditions: brain and plasma, read-out: K(p,uu,brain)
[8] = Brain to plasma partition coefficient, Kp of the compound in rat; type: ADME; conditions: brain and plasma
[9] = target: Metabotropic glutamate receptor 3 (Homo sapiens, UniProt Q14832); assay: Negative allosteric modulation of mGlu3R (unknown origin)
[10] = target: Metabotropic glutamate receptor 2 (Homo sapiens, UniProt Q14416); assay: Negative allosteric modulation of mGlu2R (unknown origin)
[11] = target: Metabotropic glutamate receptor 8 (Homo sapiens, UniProt O00222); assay: Negative allosteric modulation of mGlu8R (unknown origin)
[12] = target: Metabotropic glutamate receptor 4 (Homo sapiens, UniProt Q14833); assay: Negative allosteric modulation of mGlu4R (unknown origin)
[13] = target: Metabotropic glutamate receptor 7 (Homo sapiens, UniProt Q14831); assay: Negative allosteric modulation of mGlu7R (unknown origin)
[14] = target: Metabotropic glutamate receptor 5 (Homo sapiens, UniProt P41594); assay: Negative allosteric modulation of mGlu5R (unknown origin)
[15] = Plasma clearance in mouse; type: ADME, organism-based
[16] = target: Metabotropic glutamate receptor 6 (Homo sapiens, UniProt O15303); assay: Negative allosteric modulation of mGlu6R (unknown origin)
[17] = target: Metabotropic glutamate receptor 1 (Homo sapiens, UniProt Q13255); assay: Negative allosteric modulation of mGlu1R (unknown origin)
[18] = Half life in Sprague-Dawley rat at 0.2 mg/kg, iv administered as cassette dose by LC-MS/MS analysis; type: ADME, organism-based; conditions: Sprague-Dawley, in vivo
[19] = Volume of distribution at steady state in Sprague-Dawley rat at 0.2 mg/kg, iv administered as cassette dose by LC-MS/MS analysis; type: ADME, organism-based; conditions: in vivo, read-out: Vdss
[20] = Plasma clearance in Sprague-Dawley rat at 0.2 mg/kg, iv administered as cassette dose by LC-MS/MS analysis; type: ADME, organism-based

Chain of Metabotropic glutamate receptor 3 (Q14832 whole entry): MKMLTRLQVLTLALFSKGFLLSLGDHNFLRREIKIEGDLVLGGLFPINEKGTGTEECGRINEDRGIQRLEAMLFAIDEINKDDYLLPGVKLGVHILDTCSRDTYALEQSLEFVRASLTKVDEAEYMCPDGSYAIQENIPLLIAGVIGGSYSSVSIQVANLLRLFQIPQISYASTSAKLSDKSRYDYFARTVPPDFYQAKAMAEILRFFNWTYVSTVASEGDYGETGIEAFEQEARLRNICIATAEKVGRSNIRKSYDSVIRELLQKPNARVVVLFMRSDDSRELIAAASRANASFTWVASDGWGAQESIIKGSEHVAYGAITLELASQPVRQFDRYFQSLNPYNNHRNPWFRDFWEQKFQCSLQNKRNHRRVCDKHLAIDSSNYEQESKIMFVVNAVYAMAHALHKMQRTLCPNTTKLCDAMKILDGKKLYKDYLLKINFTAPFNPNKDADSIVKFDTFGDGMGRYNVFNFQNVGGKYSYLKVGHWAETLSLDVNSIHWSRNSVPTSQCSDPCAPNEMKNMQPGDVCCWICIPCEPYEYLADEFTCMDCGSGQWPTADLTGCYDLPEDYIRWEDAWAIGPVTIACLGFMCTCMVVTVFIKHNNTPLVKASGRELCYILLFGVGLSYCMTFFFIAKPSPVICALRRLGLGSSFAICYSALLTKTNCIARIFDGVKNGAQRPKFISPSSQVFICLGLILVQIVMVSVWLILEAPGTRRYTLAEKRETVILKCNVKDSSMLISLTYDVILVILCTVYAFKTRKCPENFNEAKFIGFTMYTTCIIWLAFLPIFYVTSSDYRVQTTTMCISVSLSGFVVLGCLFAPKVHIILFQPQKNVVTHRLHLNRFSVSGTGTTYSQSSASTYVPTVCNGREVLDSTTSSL
Chain of Metabotropic glutamate receptor 2 (Rattus norvegicus, UniProt P31421) (P31421 whole entry): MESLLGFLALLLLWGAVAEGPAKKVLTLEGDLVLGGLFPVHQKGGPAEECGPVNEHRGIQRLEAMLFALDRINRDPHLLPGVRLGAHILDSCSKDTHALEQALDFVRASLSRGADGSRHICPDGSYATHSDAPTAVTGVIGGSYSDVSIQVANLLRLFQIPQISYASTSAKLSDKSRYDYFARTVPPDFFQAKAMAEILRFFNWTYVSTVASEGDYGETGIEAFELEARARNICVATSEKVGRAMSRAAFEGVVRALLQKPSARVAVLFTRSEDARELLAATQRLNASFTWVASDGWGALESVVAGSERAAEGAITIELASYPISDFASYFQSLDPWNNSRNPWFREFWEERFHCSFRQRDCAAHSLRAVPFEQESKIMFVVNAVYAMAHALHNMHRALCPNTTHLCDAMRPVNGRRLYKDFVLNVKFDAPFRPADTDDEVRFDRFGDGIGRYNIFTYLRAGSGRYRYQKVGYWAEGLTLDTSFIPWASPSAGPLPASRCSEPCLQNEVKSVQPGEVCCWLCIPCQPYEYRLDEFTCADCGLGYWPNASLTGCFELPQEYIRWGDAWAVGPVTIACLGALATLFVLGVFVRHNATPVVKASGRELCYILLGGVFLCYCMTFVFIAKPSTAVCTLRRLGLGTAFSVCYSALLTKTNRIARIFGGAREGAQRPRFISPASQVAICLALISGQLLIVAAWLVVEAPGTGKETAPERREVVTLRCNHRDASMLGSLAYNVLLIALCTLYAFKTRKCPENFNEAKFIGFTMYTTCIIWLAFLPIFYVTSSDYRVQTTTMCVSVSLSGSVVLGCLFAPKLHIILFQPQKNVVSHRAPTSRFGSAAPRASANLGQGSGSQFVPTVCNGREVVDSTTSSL
Chain of Metabotropic glutamate receptor 2 (Rattus norvegicus) (P31421 19-872 limits assumed): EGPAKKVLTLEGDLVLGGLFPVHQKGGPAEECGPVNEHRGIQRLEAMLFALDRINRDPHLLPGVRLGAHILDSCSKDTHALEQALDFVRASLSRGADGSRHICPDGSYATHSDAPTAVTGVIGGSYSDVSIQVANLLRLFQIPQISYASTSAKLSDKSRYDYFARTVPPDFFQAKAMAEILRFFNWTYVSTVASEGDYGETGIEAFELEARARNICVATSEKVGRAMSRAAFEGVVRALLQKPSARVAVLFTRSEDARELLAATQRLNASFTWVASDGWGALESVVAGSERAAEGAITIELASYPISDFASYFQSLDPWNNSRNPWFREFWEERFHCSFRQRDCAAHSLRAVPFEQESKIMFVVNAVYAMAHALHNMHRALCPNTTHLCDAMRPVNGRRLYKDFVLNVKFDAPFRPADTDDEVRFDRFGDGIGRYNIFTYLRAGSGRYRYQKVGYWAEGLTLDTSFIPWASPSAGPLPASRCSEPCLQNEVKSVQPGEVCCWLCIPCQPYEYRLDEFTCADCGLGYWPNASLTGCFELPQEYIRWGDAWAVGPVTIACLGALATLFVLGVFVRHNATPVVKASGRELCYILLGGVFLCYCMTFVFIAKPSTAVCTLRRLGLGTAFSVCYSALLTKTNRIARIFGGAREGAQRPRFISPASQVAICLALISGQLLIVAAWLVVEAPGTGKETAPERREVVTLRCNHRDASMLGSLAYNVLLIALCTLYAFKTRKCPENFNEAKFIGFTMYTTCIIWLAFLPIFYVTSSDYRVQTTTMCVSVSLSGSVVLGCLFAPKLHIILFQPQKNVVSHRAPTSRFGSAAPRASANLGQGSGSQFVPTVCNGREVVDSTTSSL
Chain of Metabotropic glutamate receptor 8 (O00222 whole entry): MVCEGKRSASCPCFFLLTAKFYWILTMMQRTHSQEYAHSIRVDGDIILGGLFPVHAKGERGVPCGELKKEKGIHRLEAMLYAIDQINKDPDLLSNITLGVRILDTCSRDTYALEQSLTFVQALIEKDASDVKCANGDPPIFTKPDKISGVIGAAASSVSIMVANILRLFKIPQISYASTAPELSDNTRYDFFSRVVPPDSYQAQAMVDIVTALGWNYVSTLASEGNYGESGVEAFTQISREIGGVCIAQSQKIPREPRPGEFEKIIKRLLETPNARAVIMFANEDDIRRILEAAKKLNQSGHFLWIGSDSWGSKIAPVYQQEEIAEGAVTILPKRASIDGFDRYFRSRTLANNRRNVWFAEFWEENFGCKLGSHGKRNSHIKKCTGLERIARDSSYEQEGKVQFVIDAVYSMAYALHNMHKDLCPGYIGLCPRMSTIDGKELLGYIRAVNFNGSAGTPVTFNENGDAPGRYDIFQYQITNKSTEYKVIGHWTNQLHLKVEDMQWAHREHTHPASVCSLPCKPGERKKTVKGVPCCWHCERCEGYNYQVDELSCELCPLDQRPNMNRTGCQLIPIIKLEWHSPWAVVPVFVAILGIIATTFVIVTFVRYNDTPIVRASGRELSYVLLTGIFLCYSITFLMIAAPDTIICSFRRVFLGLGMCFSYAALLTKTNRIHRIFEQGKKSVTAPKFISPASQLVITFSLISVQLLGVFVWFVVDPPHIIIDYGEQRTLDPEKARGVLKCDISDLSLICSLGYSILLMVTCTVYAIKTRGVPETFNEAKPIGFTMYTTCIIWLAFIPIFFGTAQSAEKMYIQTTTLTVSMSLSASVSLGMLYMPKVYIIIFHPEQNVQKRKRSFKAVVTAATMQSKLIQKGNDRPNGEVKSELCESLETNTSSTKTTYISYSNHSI
Chain of Metabotropic glutamate receptor 5 (P41594 whole entry): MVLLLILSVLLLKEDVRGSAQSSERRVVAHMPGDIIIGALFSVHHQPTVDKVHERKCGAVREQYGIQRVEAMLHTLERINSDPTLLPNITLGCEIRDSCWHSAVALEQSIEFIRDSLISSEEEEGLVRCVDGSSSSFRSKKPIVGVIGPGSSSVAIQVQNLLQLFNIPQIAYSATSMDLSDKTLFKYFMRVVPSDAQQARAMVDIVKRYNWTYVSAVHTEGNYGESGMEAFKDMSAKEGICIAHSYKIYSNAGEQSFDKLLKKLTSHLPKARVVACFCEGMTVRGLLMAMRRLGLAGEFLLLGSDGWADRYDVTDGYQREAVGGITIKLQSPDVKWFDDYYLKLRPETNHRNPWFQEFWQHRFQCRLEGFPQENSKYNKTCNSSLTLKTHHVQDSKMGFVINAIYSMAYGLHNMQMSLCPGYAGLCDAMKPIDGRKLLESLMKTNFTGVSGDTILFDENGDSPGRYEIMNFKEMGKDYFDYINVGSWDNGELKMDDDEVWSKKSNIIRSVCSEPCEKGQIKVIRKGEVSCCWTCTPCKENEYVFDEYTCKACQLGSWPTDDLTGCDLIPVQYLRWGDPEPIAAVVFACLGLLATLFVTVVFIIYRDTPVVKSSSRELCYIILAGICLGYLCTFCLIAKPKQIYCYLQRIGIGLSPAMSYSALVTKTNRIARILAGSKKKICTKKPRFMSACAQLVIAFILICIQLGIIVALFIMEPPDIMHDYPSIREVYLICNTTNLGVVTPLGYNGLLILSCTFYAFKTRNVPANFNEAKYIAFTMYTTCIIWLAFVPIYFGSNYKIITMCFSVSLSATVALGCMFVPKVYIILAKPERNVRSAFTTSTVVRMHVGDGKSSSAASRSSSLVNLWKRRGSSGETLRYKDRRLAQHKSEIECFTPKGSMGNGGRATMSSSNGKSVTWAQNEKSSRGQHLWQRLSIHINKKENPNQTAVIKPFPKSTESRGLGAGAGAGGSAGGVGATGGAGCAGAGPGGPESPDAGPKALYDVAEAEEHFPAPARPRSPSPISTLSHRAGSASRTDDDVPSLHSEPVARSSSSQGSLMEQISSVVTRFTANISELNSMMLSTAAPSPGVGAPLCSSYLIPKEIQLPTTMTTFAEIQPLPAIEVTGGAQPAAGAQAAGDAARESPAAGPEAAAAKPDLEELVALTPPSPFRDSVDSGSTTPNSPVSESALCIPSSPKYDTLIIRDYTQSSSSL

COc1ccc(-c2cc(C(N)=O)nc3cc(CN4CCOCC4)sc23)cc1
Emax [1]: 2.6% | IC50 [2]: 2510 nM

NC(=O)c1cc(-c2ccc(F)cc2F)n2nc(COc3ccnc(C(F)(F)F)c3)cc2n1
fraction unbound at 4 h [3]: 0.03 to 0.12 | Emax [1]: 1.5% | fraction unbound [4]: 0.003 to 0.009 | Kp [5]: 2.5 to 2.7 | IC50 [2]: 102 nM | fraction unbound at 4 h [6]: 0.03 to 0.12 | Kp uu [7]: 0.4 to 0.6

COc1ccc(-c2cc(C(N)=O)nc3cc(COc4ccnc(C(F)(F)F)c4)nn23)c(F)c1
fraction unbound at 4 h [3]: 0.03 to 0.12 | Emax [1]: 2.1% | fraction unbound [4]: 0.003 to 0.009 | Kp [5]: 2.5 to 2.7 | IC50 [2]: 148 nM | fraction unbound at 4 h [6]: 0.03 to 0.12 | Kp uu [7]: 0.4 to 0.6

NC(=O)c1cc(-c2ccc(F)cc2)c2sc(CN3CCOCC3)cc2n1
Emax [1]: 2.9% | IC50 [2]: 3890 nM

NC(=O)c1cc(-c2ccc(F)cc2)c2sc(COc3ccc(F)nc3)cc2n1
Emax [1]: 13.2% | Kp [5]: > 2 | IC50 [2]: 891 nM | Kp uu [7]: < 0.4

[2H]C([2H])([2H])Oc1ccc(-c2cc(C(N)=O)nc3cc(COc4cnc(C)nc4)sc23)cc1
IC50 [2]: 447 nM

COc1ccc(-c2cc(C(N)=O)nc3cc(COc4ccc(C(F)(F)F)nc4)nn23)c(F)c1
fraction unbound at 4 h [3]: 0.03 to 0.12 | Emax [1]: 4.2% | fraction unbound [4]: 0.003 to 0.009 | Kp [5]: 2.5 to 2.7 | IC50 [2]: 347 nM | fraction unbound at 4 h [6]: 0.03 to 0.12 | Kp uu [7]: 0.4 to 0.6

NC(=O)c1cc(-c2ccc(F)cc2)c2sc(COc3ccc(C(F)(F)F)nc3)cc2n1
IC50 [2]: > 10000 nM

NC(=O)c1cc(-c2ccc(F)cc2)c2sc(CN3CCCCC3)cc2n1
Emax [1]: 2.2% | IC50 [2]: 1740 nM

Cc1cc(OCc2cc3nc(C(N)=O)cc(-c4ccc(F)cc4)n3n2)ccn1
IC50 [2]: > 10000 nM

NC(=O)c1cc(-c2ccc(F)cc2)c2sc(CN3CCSCC3)cc2n1
Emax [1]: 2.4% | IC50 [2]: 3630 nM

NC(=O)c1cc(-c2ccc(F)cc2)n2nc(CCc3cccnc3)cc2n1
Emax [1]: 2.9% | IC50 [2]: 1740 nM

Cc1ncc(OCc2cc3nc(C(N)=O)cc(-c4ccc(F)cc4)c3s2)cn1
Emax [1]: 6.9% | IC50 [2]: 589 nM

C[C@@H]1CN(Cc2ccc3c(c2)c(=O)c(C(N)=O)cn3-c2ccc(F)cc2)C[C@H](C)O1
Kp [8]: 0.3 | IC50 [9]: > 30000 nM | IC50 [10]: 207 nM

Cc1ccc(OCc2cc3nc(C(N)=O)cc(-c4ccc(F)cc4)c3s2)cn1
fraction unbound at 4 h [3]: 0.02 | Emax [1]: 2.2% | fraction unbound [4]: 0.003 | Kp [5]: 7.99 | IC50 [2]: 676 nM | fraction unbound at 4 h [6]: 0.05 | Kp uu [7]: 0.2

NC(=O)c1cc(-c2ccc(F)cc2)c2sc(COc3ccc(Cl)nc3)cc2n1
Emax [1]: 29.3% | Kp [5]: > 2 | IC50 [2]: 871 nM | Kp uu [7]: < 0.4

COc1ccc(-c2cc(C(N)=O)nc3cc(COc4ccnc(C)c4)nn23)c(F)c1
fraction unbound at 4 h [3]: 0.03 to 0.12 | Emax [1]: 35.4% | fraction unbound [4]: 0.003 to 0.009 | Kp [5]: 2.5 to 2.7 | IC50 [2]: 288 nM | fraction unbound at 4 h [6]: 0.03 to 0.12 | Kp uu [7]: 0.4 to 0.6

COc1ccc(-c2cc(C(N)=O)nc3cc(CN4CCOCC4)sc23)c(F)c1
Emax [1]: 2.3% | IC50 [2]: 1410 nM

CN(Cc1cc2nc(C(N)=O)cc(-c3ccc(F)cc3)c2s1)C1COC1
Emax [1]: 2.4% | IC50 [2]: 1410 nM

Cn1ccc(OCc2cc3nc(C(N)=O)cc(-c4ccc(F)cc4)c3s2)n1
Emax [1]: 1.9% | IC50 [2]: 1510 nM

Cc1ncccc1OCc1cc2nc(C(N)=O)cc(-c3ccc(F)cc3)c2s1
Emax [1]: 3.2% | Kp [5]: > 2 | IC50 [2]: 759 nM | Kp uu [7]: < 0.4

NC(=O)c1cc(-c2ccc(F)cc2)n2nc(COc3ccnc(Br)c3)cc2n1
fraction unbound at 4 h [3]: 0.03 to 0.12 | Emax [1]: 19.7% | fraction unbound [4]: 0.003 to 0.009 | Kp [5]: 2.5 to 2.7 | IC50 [2]: 224 nM | fraction unbound at 4 h [6]: 0.03 to 0.12 | Kp uu [7]: 0.4 to 0.6

NC(=O)c1cc(-c2ccc(F)cc2)c2sc(COc3ccc(F)cc3)cc2n1
IC50 [2]: > 10000 nM

NC(=O)c1cc(-c2ccc(F)cc2)n2nc(CCc3ccnc(C(F)(F)F)c3)cc2n1
fraction unbound at 4 h [3]: 0.04 | Emax [1]: 2.3% | fraction unbound [4]: 0.006 | Kp [5]: 4.25 | IC50 [2]: 87 nM | fraction unbound at 4 h [6]: 0.02 | Kp uu [7]: 0.59

Cn1ccc(COc2cnc(C(N)=O)cc2-c2ccc(F)cc2)n1
Kp [8]: 1.9 | IC50 [11]: > 30000 nM | IC50 [9]: > 30000 nM | IC50 [12]: > 30000 nM | IC50 [13]: > 30000 nM | IC50 [14]: > 30000 nM | clearance [15]: 118 mL/min/kg | IC50 [16]: > 30000 nM | IC50 [17]: > 30000 nM

COc1ccc(-c2cc(C(N)=O)nc3cc(COc4cnc(C)nc4)sc23)c(F)c1
Emax [1]: 2.7% | IC50 [2]: 427 nM

NC(=O)c1cc(-c2ccc(F)cc2)n2nc(CCc3ccncc3)cc2n1
Emax [1]: 2.6% | IC50 [2]: 1050 nM

COc1ccc(-c2cc(C(N)=O)nc3cc(COc4cnc(C)nc4)sc23)cc1
half-life [18]: 14.3 min | Vd [19]: 6.49 L/kg | fraction unbound at 4 h [3]: 0.02 | Emax [1]: 2.6% | Emax ([1]; tested as the 2H-labelled form): 2.8% | clearance [20]: 389 mL/min/kg | fraction unbound [4]: 0.003 | Kp [5]: 3.41 | IC50 [2]: 316 nM | fraction unbound at 4 h [6]: 0.01 | Kp uu [7]: 0.49

NC(=O)c1cc(-c2ccc(F)cc2)c2sc(COc3ccnc(C(F)(F)F)c3)cc2n1
Emax [1]: 2.3% | IC50 [2]: 1740 nM

Cc1ccc(OCc2cc3nc(C(N)=O)cc(-c4ccc(F)cc4)c3s2)c(C)n1
Emax [1]: 3.3% | Kp [5]: > 2 | IC50 [2]: 741 nM | Kp uu [7]: < 0.4

COc1ccc(OCc2cc3nc(C(N)=O)cc(-c4ccc(F)cc4)c3s2)cn1
Emax [1]: 16.8% | IC50 [2]: 2000 nM

NC(=O)c1cc(-c2ccc(F)cc2)n2nc(COc3ccc(C(F)(F)F)nc3)cc2n1
IC50 [2]: > 10000 nM

NC(=O)c1cc(-c2ccc(F)cc2)c2sc(CN3CCC(F)(F)CC3)cc2n1
Emax [1]: 2.2% | IC50 [2]: 1050 nM

NC(=O)c1cc(-c2ccc(F)cc2)c2sc(CN3CCCC3)cc2n1
Emax [1]: 4.1% | IC50 [2]: 6610 nM

NC(=O)c1cc(-c2ccc(F)cc2)c2sc(COc3cncnc3)cc2n1
Emax [1]: 26.2% | IC50 [2]: 676 nM

NC(=O)c1cc(-c2ccc(F)cc2)c2sc(CN3CCC3)cc2n1
IC50 [2]: > 10000 nM

COc1ccc(-c2cc(C(N)=O)nc3cc(COc4ccc(F)nc4)sc23)cc1
Emax [1]: 7.2% | IC50 [2]: 2570 nM

[11CH3]Oc1ccc(-c2cc(C(N)=O)nc3cc(CN4C(=O)CCC4=O)ccc23)c(F)c1
Kp [8]: 0.3 | IC50 [9]: > 30000 nM
